Assay results from patent US10047058B2, “Compounds and methods for inhibiting vacuolar ATPase” (University of Southern California, priority 2015, dated 2018).
pIC50: −log10 of the molar value. Blank lines part the entries; values can stand above or below the compound they belong to.

What was measured:
[1] = tested on: MB231 breast cancer cells; conditions: cited from earlier work
[2] = target: ATP6V1A (Homo sapiens, UniProt P38606)
[3] = tested on: mammalian cells; conditions: cited from earlier work

Sequence of ATP6V1A (P38606 whole entry): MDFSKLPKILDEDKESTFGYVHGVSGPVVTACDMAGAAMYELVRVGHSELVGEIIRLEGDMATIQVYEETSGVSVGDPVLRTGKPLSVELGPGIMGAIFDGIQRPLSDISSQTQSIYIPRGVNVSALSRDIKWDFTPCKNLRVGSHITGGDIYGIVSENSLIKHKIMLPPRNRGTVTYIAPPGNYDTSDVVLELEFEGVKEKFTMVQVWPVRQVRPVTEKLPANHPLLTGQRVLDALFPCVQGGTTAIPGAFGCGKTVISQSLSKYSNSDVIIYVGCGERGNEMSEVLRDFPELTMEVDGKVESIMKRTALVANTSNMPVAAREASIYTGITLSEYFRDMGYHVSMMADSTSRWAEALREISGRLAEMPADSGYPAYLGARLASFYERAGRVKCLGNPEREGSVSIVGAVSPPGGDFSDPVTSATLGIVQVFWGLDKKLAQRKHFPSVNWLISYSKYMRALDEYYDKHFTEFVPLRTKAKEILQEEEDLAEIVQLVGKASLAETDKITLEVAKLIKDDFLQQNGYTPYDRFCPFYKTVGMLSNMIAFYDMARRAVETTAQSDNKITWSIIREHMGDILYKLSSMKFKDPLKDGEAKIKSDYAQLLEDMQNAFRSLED

Compound: CO/C1=C\C(C)=C\[C@@H](C)[C@@H](O)[C@@H](C)C/C(C)=C/C=C/[C@H](OC)[C@@H]([C@@H](C)[C@@H](O)[C@H](C)[C@@]2(O)C[C@@H](O)[C@H](C)[C@@H](C(C)C)O2)OC1=O [bafilomycin]
effect on invasiveness of cancer cells [1]: significantly inhibited

pIC50 [2]: ~7.52
inhibition of probe QZ1 labeling (screen of electrophilic quinazolines) ([2]; 1 μM, cells pretreated with drug 30 min, then probe for 30 min): showed potent inhibition
Compound: O=C(CCl)Nc1ccc2c(Nc3ccccc3)ncnc2c1 [Formula I]

Compound: archazolid
concentration that blocks growth of mammalian cells [3]: subnanomolar
